# In PMC6099957, “Mouse β-Defensin 3, A Defensin Inhibitor of Both Its Endogenous and Exogenous Potassium Channels” (Molecules : A Journal of Synthetic Chemistry and Natural …, 2018):
# Like-named read-outs stand apart in the source and are kept apart here. No end group written: not given here.
# Experiments:
# [1] = tested on: mouse Kv1.6 channel; assay: Whole-cell patch clamp, mouse Kv1.6 channel in HEK293 cells; assay type: cell-based; settings: mean ± SE, SEM; for inhibition of mouse Kv1.6 channel currents: at least three times
# Protocol: (§1) Human embryonic kidney 293 (HEK293) cells were cultured Dulbecco’s modified Eagle medium (Thermo Fisher Scientific, Pittsburgh, PA. USA) with 10% heat-inactivated fetal calf serum supplemented with penicillin (100 units/mL) and streptomycin (100 μg/mL) in a humidified 5% CO2 incubator at 37 °C. Plasmids were transfected into HEK293 cells using the TurboFect in vitro Transfection Reagent (Thermo Fisher Scientific, Pittsburgh, PA, USA). Potassium currents were recorded after transfection for 1 to 3 days and positive cells were selected based on the presence of GFP fluorescence.
# (§2) Electrophysiological experiments were carried out at room temperature using the whole-cell recording mode by EPC10 patch clamp amplifier (Heka Elektronik, Lambrecht, Germany), which was controlled by Patchmaster software version 2 × 65 (Heka Elektronik, Holliston, MA, USA). For all the channels, HEK293 cells were bathed with mammalian Ringer’s solution contained 5 mM KCl, 140 mM NaCl, 10 mM HEPES, 2 mM CaCl2, 1 mM MgCl2 and 10 mM D-glucose (pH adjusted to 7.4 with NaOH). When rmBD3 was applied, 0.01% BSA was added to the Ringer’s solution. A multichannel microperfusion system MPS-2 (INBIO Inc., Wuhan, China) was used to exchange the external recording bath solution. The internal pipette solution contains 140 mM KCl, 1 mM MgCl2, 1 mM EGTA, 1 mM Na2ATP and 5 mM HEPES (pH adjusted to 7.4 with NaOH). All channel currents were elicited by depolarizing voltage steps of 200 ms from the holding potential −80 mV to +50 mV. Currents were typically digitized at 20 kHz and filtered at 2.9 kHz (Bessel). Electrode resistances were 3.0–5.0 MΩ, and the series resistance was usually compensated by 85%. The currents through Kv channels and KCNQ1/KCNE1 channel were recorded according to previously published references.
# (§3) The IC50 values were obtained by fitting a modified Hill equation to the data with the formula: IrmBD3/Icontrol = 1/(1 + [rmBD3]/IC50), where [rmBD3] is the concentration of rmBD3, IrmBD3 and Icontrol are the peak currents in the presence and absence of rmBD3 at four different concentrations. The conductance of mouse Kv1.6 channel was calculated by the formula: G = Ipeak/(V − EKv1.6), where Ipeak is the peak current, EKv1.6 is the reversal potential of the Kv1.6 channel. The conductance-voltage (G-V) curves were generated by the measured peak currents and fitted with a V50-V equation using the formula: G/Gmax = 1/(1 + exp [(V − V50)/k]), where G is the conductance of the channels, Gmax is the maximal channel conductance, V is the membrane voltage, V50 is the voltage of half-maximal activation, and k is the slope factor. The data were presented as the means ± SE of at least three times repeated experiments. Sigmaplot 12.5 and GraphPad Prism 5 software were used for analysis.
# [2] = tested on: human KCNQ1/KCNE1 channel; assay type: cell-based; settings: HEK293 cells, mean ± SE, SEM; for inhibition of human KCNQ1/KCNE1 channel currents: at least three times
# Text: (§4) The pRc/CMV-hKv1.3 vector was kindly provided by Prof. Stephan Grissmer (University of Ulm, Ulm, Germany) and Prof. Olaf Pongs (Zentrum für Molekulare Neurobiologie der University Hamburg, Hamburg, Germany). The cDNAs encoding human Kv1.1, Kv1.2, hERG and KCNQ1/KCNE1 channels were subcloned into the vector pIRES2-EGFP (TaKaRa Clontech, Mountain View, CA, USA) for coexpression with the green fluorescent protein (GFP), and the other channels were subcloned into vector pcDNA 3.1(+) (TaKaRa Clontech, Mountain View, CA, USA) for coexpression with GFP. The constructs were verified by DNA sequencing (Sangon Biotech, Shanghai, China). The mutants Asp400, Asp401, Val402, Asp403, Asp411, Met428 and Tyr429 on the pore region of wild type mouse Kv1.6 channel plasmids were mutated into Ala with QuikChange Site-Directed Mutagenesis Kit (Agilent Stratagene, Santa Clara, CA, USA). All the mutants were verified by DNA sequencing before being used (Sangon Biotech, China).
# as §1
# as §2, with “Electrode resistances were 3.0–5.0 MΩ, and the series resistance was usually compensated by 85%.” left out
# as §3, with “The data were presented as the means ± SE of at least three times repeated experiments. Sigmaplot 12.5 and GraphPad Prism 5 software were used for analysis.” left out
# [3] = tested on: Kv1.6-D401A channel; assay: Patch clamp, mouse Kv1.6 pore region mutant D401A; assay type: cell-based; settings: 1 μM rmBD3; HEK293 cells; mean ± SE, at least three times; SEM
# Text: as §4
# as §1, with “Plasmids were transfected into HEK293 cells using the TurboFect in vitro Transfection Reagent (Thermo Fisher Scientific, Pittsburgh, PA, USA).” left out, “fluorescence. […]” for “fluorescence.”
# [4] = tested on: hERG channel; assay type: cell-based, human; settings: 1 μM rmBD3; HEK293 cells; mean ± SE, at least three times; SEM
# Text: as §4
# as §1, with “Plasmids were transfected into HEK293 cells using the TurboFect in vitro Transfection Reagent (Thermo Fisher Scientific, Pittsburgh, PA, USA).” left out, “fluorescence. […]” for “fluorescence.”
# [5] = tested on: human Kv1.2 channel; assay: Whole-cell patch clamp, human Kv1.2 channel in HEK293 cells; assay type: cell-based; settings: 1 μM rmBD3, mean ± SE, at least three times, SEM
# Text: as §4
# as §1, with “Plasmids were transfected into HEK293 cells using the TurboFect in vitro Transfection Reagent (Thermo Fisher Scientific, Pittsburgh, PA, USA).” left out, “fluorescence. […]” for “fluorescence.”
# [6] = tested on: mouse Kv1.1 channel; assay: Whole-cell patch clamp, mouse Kv1.1 channel in HEK293 cells; assay type: cell-based; settings: 1 μM rmBD3, mean ± SE, at least three times, SEM
# Protocol: as §1
# (§5) Electrophysiological experiments were carried out at room temperature using the whole-cell recording mode by EPC10 patch clamp amplifier (Heka Elektronik, Lambrecht, Germany), which was controlled by Patchmaster software version 2 × 65 (Heka Elektronik, Holliston, MA, USA). For all the channels, HEK293 cells were bathed with mammalian Ringer’s solution contained 5 mM KCl, 140 mM NaCl, 10 mM HEPES, 2 mM CaCl2, 1 mM MgCl2 and 10 mM D-glucose (pH adjusted to 7.4 with NaOH). When rmBD3 was applied, 0.01% BSA was added to the Ringer’s solution. A multichannel microperfusion system MPS-2 (INBIO Inc., Wuhan, China) was used to exchange the external recording bath solution. […] The currents through Kv channels and KCNQ1/KCNE1 channel were recorded according to previously published references. […]
# [7] = tested on: Kv1.6-M428A channel; assay: Patch clamp, mouse Kv1.6 pore region mutant M428A; assay type: cell-based; settings: 1 μM rmBD3; HEK293 cells; mean ± SE, at least three times; SEM
# Text: as §4
# as §1, with “Plasmids were transfected into HEK293 cells using the TurboFect in vitro Transfection Reagent (Thermo Fisher Scientific, Pittsburgh, PA, USA).” left out, “fluorescence. […]” for “fluorescence.”
# [8] = tested on: Kv1.6-D400A channel; assay: Patch clamp, mouse Kv1.6 pore region mutant D400A; assay type: cell-based; settings: 1 μM rmBD3; HEK293 cells; mean ± SE, at least three times; SEM
# Text: as §4
# as §1, with “Plasmids were transfected into HEK293 cells using the TurboFect in vitro Transfection Reagent (Thermo Fisher Scientific, Pittsburgh, PA, USA).” left out, “fluorescence. […]” for “fluorescence.”
# [9] = tested on: Kv1.6-D403A channel; assay: Patch clamp, mouse Kv1.6 pore region mutant D403A; assay type: cell-based; settings: 1 μM rmBD3; HEK293 cells; mean ± SE, at least three times; SEM
# Text: as §4
# as §1, with “Plasmids were transfected into HEK293 cells using the TurboFect in vitro Transfection Reagent (Thermo Fisher Scientific, Pittsburgh, PA, USA).” left out, “fluorescence. […]” for “fluorescence.”
# [10] = tested on: mouse Kv1.3 channel; assay: Whole-cell patch clamp, mouse Kv1.3 channel in HEK293 cells; assay type: cell-based; settings: 1 μM rmBD3, mean ± SE, at least three times, SEM
# Protocol: as §1, §5
# [11] = tested on: human Kv1.1 channel; assay: Whole-cell patch clamp, human Kv1.1 channel in HEK293 cells; assay type: cell-based; settings: 1 μM rmBD3, mean ± SE, at least three times, SEM
# Text: as §4
# as §1, with “Plasmids were transfected into HEK293 cells using the TurboFect in vitro Transfection Reagent (Thermo Fisher Scientific, Pittsburgh, PA, USA).” left out, “fluorescence. […]” for “fluorescence.”
# [12] = tested on: Kv1.6-Y429A channel; assay: Patch clamp, mouse Kv1.6 pore region mutant Y429A; assay type: cell-based; settings: 1 μM rmBD3; HEK293 cells; mean ± SE, at least three times; SEM
# Text: as §4
# as §1, with “Plasmids were transfected into HEK293 cells using the TurboFect in vitro Transfection Reagent (Thermo Fisher Scientific, Pittsburgh, PA, USA).” left out, “fluorescence. […]” for “fluorescence.”
# [13] = tested on: human KCNQ1 channel; assay type: cell-based; settings: 1 μM rmBD3; HEK293 cells; mean ± SE, at least three times; SEM
# Protocol: as §1, §5
# [14] = tested on: human Kv3.2 channel; assay: Whole-cell patch clamp, human Kv3.2 channel in HEK293 cells; assay type: cell-based; settings: 1 μM rmBD3, mean ± SE, at least three times, SEM
# Protocol: as §1, §5
# [15] = tested on: Kv1.6-D411A channel; assay: Patch clamp, mouse Kv1.6 pore region mutant D411A; assay type: cell-based; settings: 1 μM rmBD3; HEK293 cells; mean ± SE, at least three times; SEM
# Text: as §4
# as §1, with “Plasmids were transfected into HEK293 cells using the TurboFect in vitro Transfection Reagent (Thermo Fisher Scientific, Pittsburgh, PA, USA).” left out, “fluorescence. […]” for “fluorescence.”
# [16] = tested on: human Kv1.6 channel; assay: Whole-cell patch clamp, human Kv1.6 channel in HEK293 cells; assay type: cell-based; settings: 1 μM rmBD3, mean ± SE, at least three times, SEM
# Protocol: as §1, §5
# [17] = tested on: mouse Kv1.2 channel; assay: Whole-cell patch clamp, mouse Kv1.2 channel in HEK293 cells; assay type: cell-based; settings: 1 μM rmBD3, mean ± SE, at least three times, SEM
# Protocol: as §1, §5
# [18] = tested on: human Kv1.3 channel; assay: Whole-cell patch clamp, human Kv1.3 channel in HEK293 cells; assay type: cell-based; settings: 1 μM rmBD3, mean ± SE, at least three times, SEM
# Text: as §4
# as §1, with “Plasmids were transfected into HEK293 cells using the TurboFect in vitro Transfection Reagent (Thermo Fisher Scientific, Pittsburgh, PA, USA).” left out, “fluorescence. […]” for “fluorescence.”
# [19] = tested on: Kv1.6-V402A channel; assay: Patch clamp, mouse Kv1.6 pore region mutant V402A; assay type: cell-based; settings: 1 μM rmBD3; HEK293 cells; mean ± SE, at least three times; SEM
# Text: as §4
# as §1, with “Plasmids were transfected into HEK293 cells using the TurboFect in vitro Transfection Reagent (Thermo Fisher Scientific, Pittsburgh, PA, USA).” left out, “fluorescence. […]” for “fluorescence.”
substance,measurement,setting,value
"mouse β-defensin 3 (KKINNPVSCLRKGGRCWNRCIGNTRQIGSCGVPFLKCCKRK; ends and bridges not checked; cysteine pairing not given here; UniProt Q9WTL0 23-63, looked up) [rmBD3, Recombinant mouse β-defensin 3 expressed in E. coli, cleaved from His-tag fusion by Enterokinase, HPLC purified]",inhibition of mouse Kv1.6 channel currents,"[1]; 1 nM rmBD3, HEK293 cells",18.1 ± 2.4%
same,inhibition of mouse Kv1.6 channel currents,"[1]; 10 nM rmBD3, HEK293 cells",26.4 ± 1.8%
same,inhibition of mouse Kv1.6 channel currents,"[1]; 1 μM rmBD3, HEK293 cells, whole-cell patch clamp",56.1 ± 4.2%
same,inhibition of mouse Kv1.6 channel currents,"[1]; 10 μM rmBD3, HEK293 cells",73.1 ± 2.2%
same,IC50,"[1]; Hill equation fitting, four concentrations, HEK293 cells, read-out: IC50, mouse Kv1.6 channel currents",600 ± 400 nM
same,k (slope factor) of activation G-V curve of Kv1.6 channel in the presence of rmBD3,"[1]; after treatment with 1 μM rmBD3 (control 6.8 ± 0.6), Boltzmann fitting",6.5 ± 0.4
same,V50 of activation G-V curve of Kv1.6 channel in the presence of rmBD3,"[1]; after treatment with 1 μM rmBD3 (control −23.8 ± 0.7 mV), Boltzmann fitting",−18.8 ± 0.5 mV
same,inhibition of human KCNQ1/KCNE1 channel currents,[2]; 10 nM rmBD3,21.8 ± 3.6%
same,inhibition of human KCNQ1/KCNE1 channel currents,[2]; 100 nM rmBD3,32.4 ± 1.8%
same,inhibition of human KCNQ1/KCNE1 channel currents,[2]; 1 μM rmBD3,46.3 ± 4.2%
same,inhibition of human KCNQ1/KCNE1 channel currents,[2]; 10 μM rmBD3,68.8 ± 3.8%
same,IC50,"[2]; Hill equation fitting, four concentrations, read-out: IC50, human KCNQ1/KCNE1 channel currents",1200 ± 800 nM
same,inhibition of mutant Kv1.6-D401A channel,[3],20.7 ± 4.5%
same,inhibition of hERG potassium currents,[4],14.7 ± 3.9%
same,inhibition of human Kv1.2 potassium currents,[5],9.3 ± 0.8%
same,inhibition of mouse Kv1.1 potassium currents,[6],19.0 ± 2.2%
same,inhibition of mutant Kv1.6-M428A channel,[7],39.3 ± 1.8%
same,inhibition of mutant Kv1.6-D400A channel,[8],54.9 ± 1.9%
same,inhibition of mutant Kv1.6-D403A channel,[9],35.6 ± 1.0%
same,inhibition of mouse Kv1.3 potassium currents,[10],14.0 ± 3.7%
same,inhibition of human Kv1.1 potassium currents,[11],8.8 ± 3.0%
same,inhibition of mutant Kv1.6-Y429A channel,[12],36.7 ± 2.0%
same,inhibition of human KCNQ1 channel currents,[13],26.1 ± 4.8%
same,inhibition of human Kv3.2 potassium currents,[14],11.6 ± 1.3%
same,inhibition of mutant Kv1.6-D411A channel,[15],43.2 ± 3.5%
same,inhibition of human Kv1.6 potassium currents,[16],31.2 ± 3.6%
same,inhibition of mouse Kv1.2 potassium currents,[17],4.9 ± 0.6%
same,inhibition of human Kv1.3 potassium currents,[18],14.6 ± 0.9%
same,inhibition of mutant Kv1.6-V402A channel,[19],21.8 ± 4.5%
